Test results reported in article PMC12561106, “STOP Strategy to Inhibit P. falciparum and S. aureus Growth: Molecular Mechanism Studies on Purposely Designed Hybrids” (Antibiotics, 2025).
Values after ≈ are worked out from the molar mass of the structure shown. Like-named read-outs stand apart in the source and are kept apart here.

Experiments:
[1] = test system: E. coli ATCC 25923; experiment: broth microdilution antimicrobial assay (MIC); format: cell-based; settings: Escherichia coli, ATCC25923, 24 h, range 100–0.19 µM
[2] = test system: S. aureus ATCC 25923; experiment: broth microdilution antimicrobial assay (MIC, IC50); format: cell-based; settings: Staphylococcus aureus, ATCC25923; for IC50: S. aureus ATCC 25923, 24 h, OD630, mean value with standard deviation, read-out: IC50 ATCC 25923; for MIC: broth microdilution, 24 h, range 100–0.19 µM
Text: (§1) Reference bacterial strains of Staphylococcus aureus (ATCC 25923) and Escherichia coli (ATCC 25922) were used in this study as Gram-positive and negative models, respectively. These reference strains were purchased from the American Type Culture Collection (ATCC, Manassas, VA, USA). Clinical isolates, identified by MALDI-TOF MS (Bruker Daltonik, GmbH, Bremen, Germany), were profiled for their antibiotic susceptibility by using the Vitek2 semiautomated system (bioMérieux, Craponne, France) and according to EUCAST (Version 12, 2022, http://www.eucast.org (accessed on 1 January 2022)). The bacterial cultures were routinely grown on 5% blood agar plates (Biolife Italiana S.r.l., Milan, Italy) and were freshly used in the antibacterial assays.
(§2) The minimum inhibitory concentrations (MICs) were determined using the microbroth dilution method in microtiter plates according to the Clinical and Laboratory Standards Institute (CLSI) guidelines. In short, microbial inocula were prepared at 0.5 McFarland in PBS and, subsequently, bacterial suspensions were diluted 1:200 in Mueller–Hinton broth (Sigma-Aldrich, St. Louis, MO, USA), while fungal inoculum was diluted 1:20 in RPMI-1640 medium (Gibco®, ThermoFisher Scientific Inc., Waltham, MA, USA), containing glucose 2%, 0.3% levo-glutamine buffered to pH 7.0 with 0.165 M 3-(N-morpholino)propanesulfonic acid (MOPS). A total of 100 µL of these microbial suspensions was introduced into a 96-well microplate and incubated with 100 µL of the compounds, two-fold serially diluted in the range of 100–0.19 µM. Positive controls (microbial suspensions in regular media), negative controls (only compounds), solvent controls (microbial suspensions incubated with DMSO dilutions), and the reference drug controls were included in the tests. The plate was incubated at 37 °C for 24 h, and subsequently the optical density at 630 nm (OD630nm) was spectrophotometrically measured. Experiments were performed in triplicate with three biological replicates. In addition to MIC, IC50 values were measured for the active compounds. The values, corresponding to the concentration of the compound giving rise to an inhibition of growth of 50%, were obtained by interpolation on dose–response curves generated by plotting the percentages of growth inhibition, relative to the positive control (set to 100% of growth), as a function of the tested concentrations (on a logarithm scale). Statistical analysis was carried out by using GraphPad Prism version 9.4.1 for Windows (GraphPad Software, San Diego, CA, USA, www.graphpad.com).

[3] = test system: clinical isolates of S. aureus (MRSA); experiment: antibiotic susceptibility profiling of clinical isolates (Vitek2, EUCAST); format: cell-based, Staphylococcus aureus; settings: for Antibiotic-resistance profile, MRSA 1: clinical isolate MRSA 1; for Antibiotic-resistance profile, MRSA 2: clinical isolate MRSA 2; for Antibiotic-resistance profile, MRSA 3: clinical isolate MRSA 3; for Antibiotic-resistance profile, MRSA 4: clinical isolate MRSA 4; for Antibiotic-resistance profile, MRSA 5: clinical isolate MRSA 5; as to all read-outs here: key: R = Resistant; S = Susceptible; I = Intermediate
Text: as §1

[4] = test system: C. albicans ATCC 10231; experiment: broth microdilution antifungal assay (MIC); format: cell-based; settings: Candida albicans, ATCC10231, 24 h, range 100–0.19 µM
Description: The reference strain of Candida albicans (ATCC 10231) was used in the present study and maintained on Sabouraud Dextrose Agar (Biolife Italiana S.r.l., Milan, Italy) before the antifungal assays.
as §2

[5] = test system: P. falciparum CQ-resistant (CQ-R) W2 strain; experiment: antiplasmodial drug susceptibility assay (pLDH), CQ-resistant strain; format: cell-based; settings: Plasmodium falciparum, read-out: IC50 W2 (CQ-R)
Description: (§3) P. falciparum cultures were carried out according to Trager and Jensen with slight modifications. The CQ-sensitive strain D10 and the CQ-resistant strain W2 were maintained at 5% hematocrit (human A-positive erythrocytes) in RPMI 1640 medium (EuroClone S.p.A, Milan, Italy) with the addition of 1% AlbuMax (Invitrogen, San Diego, California, USA), 0.01% hypoxanthine, 20 mM Hepes, and 2 mM glutamine at 37 °C in a standard gas mixture (1% O2, 5% CO2, and 94% N2). […] Drugs were placed in 96-well flat-bottomed microplates, and serial dilutions were made. Asynchronous cultures with parasitaemia of 1–1.5% and 1% final hematocrit were aliquoted into the plates and incubated for 72 h at 37 °C. Parasite growth was determined spectrophotometrically (OD650nm) by measuring the activity of the parasite lactate dehydrogenase (pLDH), as described in a modified version of Makler’s method in control- and drug-treated cultures. The antiplasmodial activity is expressed as 50% inhibitory concentrations (IC50); each IC50 value is the mean ± standard deviation of at least three separate experiments performed in duplicate.

[6] = cell viability and proliferation assay (CCK-8/WST8); format: cell-based; settings: human, WS1 cells (human-derived fibroblasts, ATCC CRL-1502), mean value with standard deviation
Description: WS1 cells (ATCC CRL-1502) were selected as a model system to investigate the effect of PTZ-quinoline hybrid compounds on human-derived fibroblasts. Briefly, cells were cultured in DMEM-High glucose supplemented with 10% fetal bovine serum (FBS) (Carlo Erba Reagents, Milan, Italy), 100 U/mL penicillin, and 100 µg/mL streptomycin at 37 °C with 5% CO2. For experiments, cells were seeded into 96-well plates at 0.7 × 10^4 cells/well, and incubated at 37 °C for 24 h. […] Cell viability was assessed by a WST8-based assay according to the manufacturer’s instructions (CCK-8, Cell Counting Kit-8, Dojindo Molecular Technologies, Rockville, MD, USA). After 48 h of incubation, culture medium was removed from each well, the monolayer was washed with PBS, and 100 µL of fresh medium containing 10 µL of CCK-8 solution was added. Following a 2 h incubation at 37 °C, the OD450nm was read, and data were expressed as the percentage of cell viability relative to the untreated controls. The CC50 was obtained on the corresponding dose–response curves generated as previously reported for IC50 values. Experiments were carried out in triplicate in three biological replicates.

[7] = test system: P. falciparum CQ-sensitive (CQ-S) D10 strain; experiment: antiplasmodial drug susceptibility assay (pLDH), CQ-sensitive strain; format: cell-based; settings: Plasmodium falciparum, read-out: IC50 D10 (CQ-S)
Description: as §3

[8] = P. falciparum W2, 72 h, pLDH, mean value with standard deviation
[9] = P. falciparum D10, 72 h, pLDH, mean value with standard deviation

Compound	MIC [1]	MIC [2]	Antibiotic-resistance profile, MRSA 1 [3]	Antibiotic-resistance profile, MRSA 2 [3]	Antibiotic-resistance profile, MRSA 3 [3]	Antibiotic-resistance profile, MRSA 4 [3]	Antibiotic-resistance profile, MRSA 5 [3]	MIC [4]	CC50 at 48 h [6]	other results
CNC(C)C1CCC(N)C(OC2C(N)CC(N)C(OC3OCC(C)(O)C(NC)C3O)C2O)O1 (centres unmarked) [GEN, gentamicin]	1.03 µM (≈ 0.492 µg/mL)	6.6 µM (≈ 3.15 µg/mL)	S	S	S	S	S			IC50 [2]: 4000 ± 50 nM
OC(Cn1cncn1)(Cn1cncn1)c1ccc(F)cc1F [FLC, Fluconazole, reference compound]								0.82 µM (≈ 0.251 µg/mL)		
CN(C)[C@@H]1C(O)=C(C(N)=O)C(=O)[C@@]2(O)C(O)=C3C(=O)c4c(O)cccc4[C@@](C)(O)[C@H]3C[C@@H]12 [TE, Tetracycline]			S	S	S	S	S			
C[C@H]1COc2c(N3CCN(C)CC3)c(F)cc3c(=O)c(C(=O)O)cn1c23 [LVX, Levofloxacin]			R	R	R	R	R			
Clc1ccc2c(N3CCN(CCCn4cc(CN5c6ccccc6Sc6ccccc65)nn4)CC3)ccnc2c1 [Compound 8, 10-((1-(3-(4-(7-chloroquinolin-4-yl)piperazin-1-yl)propyl)-1H-1,2,3-triazol-4-yl)methyl)-10H-phenothiazine]	> 100 µM	> 100 µM						> 100 µM	> 100000 nM	IC50 [5, 8]: 2170 ± 243 nM; IC50 [7, 9]: 12600 ± 241 nM
CN[C@H](CC(C)C)C(=O)N[C@H]1C(=O)N[C@@H](CC(N)=O)C(=O)N[C@H]2C(=O)N[C@H]3C(=O)N[C@H](C(=O)N[C@H](C(=O)O)c4cc(O)cc(O)c4-c4cc3ccc4O)[C@H](O)c3ccc(c(Cl)c3)Oc3cc2cc(c3O[C@@H]2O[C@H](CO)[C@@H](O)[C@H](O)[C@H]2O[C@H]2C[C@](C)(N)[C@H](O)[C@H](C)O2)Oc2ccc(cc2Cl)[C@H]1O [VA, Vancomycin]			S	S	S	S	S			
CCC[C@@H]1C[C@@H](C(=O)N[C@@H]([C@H]2O[C@H](SC)[C@H](O)[C@@H](O)[C@H]2O)[C@H](C)Cl)N(C)C1 [CM, Clindamicyn]					R	S	S			
Clc1ccc2c(N3CCN(CCCCN4c5ccccc5Sc5ccccc54)CC3)ccnc2c1 [Compound 2, 10-(4-(4-(7-chloroquinolin-4-yl)piperazin-1-yl)butyl)-10H-phenothiazine]	> 100 µM	> 100 µM						> 100 µM	> 100000 nM	
Cc1onc(-c2ccccc2)c1C(=O)N[C@@H]1C(=O)N2[C@@H]1SC(C)(C)[C@@H]2C(=O)O [OX, Oxacillin]			R	R	R	R	R			
Teicoplanin [TEC]			S	S	S	S	S			
Penicillin			R	R	R	R	R			
Clc1ccc2c(-n3cc(CN4c5ccccc5Sc5ccccc54)nn3)ccnc2c1 [Compound 7, 10-((1-(7-chloroquinolin-4-yl)-1H-1,2,3-triazol-4-yl)methyl)-10H-phenothiazine]	> 100 µM	> 100 µM						> 100 µM	> 100000 nM	
Clc1ccc2c(c1)N(Cc1cn(CCCCCNc3ccnc4cc(Cl)ccc34)nn1)c1ccccc1S2 [Compound 6b, 7-chloro-N-(5-(4-((2-chloro-10H-phenothiazin-10-yl)methyl)-1H-1,2,3-triazol-1-yl)pentyl)quinolin-4-amine]	> 100 µM	50 µM (≈ 28.1 µg/mL)						> 100 µM	34300 ± 520 nM	IC50 [2]: 25000 ± 1760 nM; IC50 [5, 8]: 184 ± 93 nM; IC50 [7, 9]: 602 ± 314 nM
Clc1ccc2c(N3CCN(CCCCCN4c5ccccc5Sc5ccccc54)CC3)ccnc2c1 [Compound 3, 10-(5-(4-(7-chloroquinolin-4-yl)piperazin-1-yl)pentyl)-10H-phenothiazine]	> 100 µM	> 100 µM						> 100 µM	> 100000 nM	IC50 [5, 8]: 990 ± 245 nM; IC50 [7, 9]: 2340 ± 12 nM
CC1(C)S[C@@H]2[C@H](NC(=O)[C@H](N)c3ccccc3)C(=O)N2[C@H]1C(=O)O [AMP, ampicillin, reference compound]	67.3 µM (≈ 23.5 µg/mL)	4.2 µM (≈ 1.47 µg/mL)								IC50 [2]: 2590 ± 130 nM
Clc1ccc2c(N3CCN(CCCN4c5ccccc5Sc5ccccc54)CC3)ccnc2c1 [Compound 1, 10-(3-(4-(7-chloroquinolin-4-yl)piperazin-1-yl)propyl)-10H-phenothiazine]	> 100 µM	> 100 µM						> 100 µM	> 100000 nM	IC50 [5, 8]: 2320 ± 1050 nM; IC50 [7, 9]: 2520 ± 840 nM
CCN(CC)CCCC(C)Nc1ccnc2cc(Cl)ccc12 (centres unmarked) [CQ, chloroquine, reference compound]										IC50 ([5]; W2, 72 h): 420 ± 103 nM; IC50 ([7]; D10, 72 h): 25 ± 7 nM
CC[C@H]1OC(=O)[C@H](C)[C@@H](O[C@H]2C[C@@](C)(OC)[C@@H](O)[C@H](C)O2)[C@H](C)[C@@H](O[C@@H]2O[C@H](C)C[C@H](N(C)C)[C@H]2O)[C@](C)(O)C[C@@H](C)C(=O)[C@H](C)[C@@H](O)[C@]1(C)O [E, Erythromycin]					R	S	S			
